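96-well plates; 48 h exposure; 5 concentrations. Endpoints by linear interpolation between flanking doses. Not reached: highest tested concentration assigned. Here, GI50 denotes the concentration required for 50% inhibition of growth.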 Active and inactive are the calls of the source. No stated cut-off is given here; in the data, active = GI50 up to about 1.1 µM and inactive = higher.
What was measured:
Test in all cases: NCI-60 cell line screen, 48 h
786-0 = test system: 786-0
EKVX = test system: EKVX
NCI-H522 = test system: NCI-H522
HT-29 = test system: HT-29
HCT-116 = test system: HCT-116
KM12 = test system: KM12
A498 = test system: A498
HOP-92 = test system: HOP-92
SF-295 = test system: SF-295
BT-549 = test system: BT-549
SN12C = test system: SN12C
PC-3 = test system: PC-3
Hs-578T = test system: Hs-578T
UACC-62 = test system: UACC-62
M14 = test system: M14
Malme-3M = test system: Malme-3M
SW-620 = test system: SW-620
MOLT-4 = test system: MOLT-4
OVCAR-3 = test system: OVCAR-3

Row | Compound | GI50 (786-0) | GI50 (EKVX) | GI50 (NCI-H522) | GI50 (HT-29) | GI50 (HCT-116) | GI50 (KM12) | GI50 (A498) | GI50 (HOP-92) | GI50 (SF-295) | GI50 (BT-549) | GI50 (SN12C) | GI50 (PC-3) | GI50 (Hs-578T) | GI50 (UACC-62) | GI50 (M14) | GI50 (Malme-3M) | GI50 (SW-620) | GI50 (MOLT-4) | GI50 (OVCAR-3)
1 | CCc1ccc(CCN2CCCCC2)nc1 | > 100 µM (inactive) | > 100 µM (inactive) | 52.1 µM (inactive) | > 100 µM (inactive) | > 100 µM (inactive) | > 100 µM (inactive) | > 100 µM (inactive) | 46.3 µM (inactive) | > 100 µM (inactive) | > 100 µM (inactive) | > 100 µM (inactive) | > 100 µM (inactive) | 56.9 µM (inactive) | > 100 µM (inactive) | > 100 µM (inactive) | > 100 µM (inactive) | > 100 µM (inactive) | > 100 µM (inactive) | 92.3 µM (inactive)
2 | CN(CCNC(=O)c1c[nH]c2c1ccc1ccccc12)CCNC(=O)c1c[nH]c2c1ccc1ccccc12 | 1.82 µM (inactive) | 3.62 µM (inactive) | 1.89 µM (inactive) | 1.87 µM (inactive) | 1.76 µM (inactive) | 1.66 µM (inactive) | 1.53 µM (inactive) | 1.75 µM (inactive) | 2.22 µM (inactive) | 9.35 µM (inactive) | 3.39 µM (inactive) | 2.26 µM (inactive) | 2.94 µM (inactive) | 1.75 µM (inactive) | 1.84 µM (inactive) | 8.55 µM (inactive) | 1.91 µM (inactive) | 2.01 µM (inactive) | 4.29 µM (inactive)
3 | COc1cc2c(cc1OC)C(C1CC1)ON(C)CC2 (centres undefined) | > 100 µM (inactive) | 58.7 µM (inactive) | > 100 µM (inactive) | > 100 µM (inactive) | > 100 µM (inactive) | > 100 µM (inactive) | > 100 µM (inactive) | > 100 µM (inactive) | > 100 µM (inactive) | > 100 µM (inactive) | > 100 µM (inactive) | > 100 µM (inactive) | > 100 µM (inactive) | > 100 µM (inactive) | > 100 µM (inactive) | > 100 µM (inactive) | > 100 µM (inactive) | > 100 µM (inactive) | > 100 µM (inactive)
4 | O=c1c2cc(I)ccc2nc(Sc2ccc([N+](=O)[O-])cc2[N+](=O)[O-])n1Cc1ccccc1 | 0.815 µM (active) | 3.55 µM (inactive) | 1.04 µM (active) | 3.24 µM (inactive) | 1.26 µM (inactive) | 3.32 µM (inactive) | 7.03 µM (inactive) | 2.33 µM (inactive) | 5.92 µM (inactive) | 1.29 µM (inactive) | 1.46 µM (inactive) | 2.89 µM (inactive) | 4.78 µM (inactive) | 2.29 µM (inactive) | 1.94 µM (inactive) | 5.51 µM (inactive) | 2.47 µM (inactive) | 1.39 µM (inactive) | 1.9 µM (inactive)
5 | CC(=O)OC1CCC2(C)C(=CCC3C2CCC2(C)C(C(C)C(=O)O)CCC32)C1 (centres undefined) | > 100 µM (inactive) | 56.9 µM (inactive) | 58.6 µM (inactive) | 48.6 µM (inactive) | 75.9 µM (inactive) | 84.7 µM (inactive) | 59.7 µM (inactive) | > 100 µM (inactive) | > 100 µM (inactive) | > 100 µM (inactive) | > 100 µM (inactive) | > 100 µM (inactive) | > 100 µM (inactive) | > 100 µM (inactive) | > 100 µM (inactive) | > 100 µM (inactive) | > 100 µM (inactive) | > 100 µM (inactive) | > 100 µM (inactive)
6 | C[C@H]1CC(=O)[C@@]2(O)C#C/C=C\C#C[C@@H]3Nc4c(cc(O)c5c4C(=O)c4ccccc4C5=O)[C@]24O[C@]314 | 0.0128 µM (active) | 0.228 µM (active) | 0.0504 µM (active) | 0.0619 µM (active) | 0.00982 µM (active) | 0.0927 µM (active) | 0.0586 µM (active) | 0.0157 µM (active) | 0.0161 µM (active) | 0.0194 µM (active) | 0.00296 µM (active) | 0.259 µM (active) | 0.811 µM (active) | 0.00764 µM (active) | 0.00916 µM (active) | 0.01 µM (active) | 0.0153 µM (active) | < 0.001 µM (active) | 0.136 µM (active)
7 | COc1ccc(C(=O)/C=C/c2ccc(OCC#N)cc2)cc1OC | 19.9 µM (inactive) | 14.9 µM (inactive) | 16.8 µM (inactive) | 22.3 µM (inactive) | 5.09 µM (inactive) | 5.33 µM (inactive) | > 10 µM (inactive) | 22.6 µM (inactive) | > 10 µM (inactive) | 15.5 µM (inactive) | 16.4 µM (inactive) | > 10 µM (inactive) | 27.4 µM (inactive) | 16.7 µM (inactive) | 16.4 µM (inactive) | 20.9 µM (inactive) | 7.16 µM (inactive) | 10.3 µM (inactive) | 21.2 µM (inactive)
8 | O=C1Nc2ccccc2/C1=N/N=C1NCCCCN1 | > 100 µM (inactive) | > 100 µM (inactive) | > 100 µM (inactive) | > 100 µM (inactive) | > 100 µM (inactive) | > 100 µM (inactive) | > 100 µM (inactive) | > 100 µM (inactive) | > 100 µM (inactive) | > 100 µM (inactive) | > 100 µM (inactive) | > 100 µM (inactive) | > 100 µM (inactive) | > 100 µM (inactive) | > 100 µM (inactive) | > 100 µM (inactive) | > 100 µM (inactive) | > 100 µM (inactive) | > 100 µM (inactive)
9 | O=C(C=P(c1ccccc1)(c1ccccc1)c1ccccc1)c1ccc(-c2cccc([N+](=O)[O-])c2)s1 | > 100 µM (inactive) | 57.7 µM (inactive) | 23.7 µM (inactive) | 29.6 µM (inactive) | 61.8 µM (inactive) | 42 µM (inactive) | 35.2 µM (inactive) | 16.4 µM (inactive) | 47.4 µM (inactive) | > 100 µM (inactive) | 68.7 µM (inactive) | 24.9 µM (inactive) | 52.5 µM (inactive) | 59 µM (inactive) | > 100 µM (inactive) | 81.7 µM (inactive) | 38.2 µM (inactive) | 20.6 µM (inactive) | 32.7 µM (inactive)
10 | Nc1ccc(C2SCC(=O)N2NS(=O)(=O)c2cccc(C(=O)O)c2)cc1 (centres undefined) | > 100 µM (inactive) | > 100 µM (inactive) | > 100 µM (inactive) | > 100 µM (inactive) | > 100 µM (inactive) | > 100 µM (inactive) | > 100 µM (inactive) | > 100 µM (inactive) | > 100 µM (inactive) | > 100 µM (inactive) | > 100 µM (inactive) | > 100 µM (inactive) | > 100 µM (inactive) | > 100 µM (inactive) | > 100 µM (inactive) | 18.1 µM (inactive) | > 100 µM (inactive) | > 100 µM (inactive) | > 100 µM (inactive)
11 | CC(=O)Nc1ccc(-c2nc3cc(Cl)ccc3o2)cc1 | > 50 µM (inactive) | > 50 µM (inactive) | > 50 µM (inactive) | > 50 µM (inactive) | > 50 µM (inactive) | > 50 µM (inactive) | > 50 µM (inactive) | > 50 µM (inactive) | > 50 µM (inactive) | > 50 µM (inactive) | > 50 µM (inactive) | > 50 µM (inactive) | > 50 µM (inactive) | > 50 µM (inactive) | > 50 µM (inactive) | > 50 µM (inactive) | > 50 µM (inactive) | > 50 µM (inactive) | > 50 µM (inactive)

Source: ChEMBL document CHEMBL1201862, “PubChem BioAssay data set” (2004)
